Measured values reported in ChEMBL document CHEMBL4828768, “Talaromynoids A-I, Highly Oxygenated Meroterpenoids from the Marine-Derived Fungus Talaromyces purpureogenus SCSIO 41517 and Their Lipid Accumulation Inhibitory Activities” (J Nat Prod, 2021).

Experiments:
Details in all cases: dose 6.7 µg/ml
[1] = target: Tyrosine-protein phosphatase non-receptor type 6 (Homo sapiens) (UniProt P29350); assay: Inhibition of human recombinant SHP1 expressed in Escherichia coli assessed as inhibition of phosphatase activity by measuring p-nitrophenyl phosphate at 6.7 microg/ml measured after 60 mins
Tyrosine-protein phosphatase non-receptor type 6 (Homo sapiens), sequence (P29350 whole entry): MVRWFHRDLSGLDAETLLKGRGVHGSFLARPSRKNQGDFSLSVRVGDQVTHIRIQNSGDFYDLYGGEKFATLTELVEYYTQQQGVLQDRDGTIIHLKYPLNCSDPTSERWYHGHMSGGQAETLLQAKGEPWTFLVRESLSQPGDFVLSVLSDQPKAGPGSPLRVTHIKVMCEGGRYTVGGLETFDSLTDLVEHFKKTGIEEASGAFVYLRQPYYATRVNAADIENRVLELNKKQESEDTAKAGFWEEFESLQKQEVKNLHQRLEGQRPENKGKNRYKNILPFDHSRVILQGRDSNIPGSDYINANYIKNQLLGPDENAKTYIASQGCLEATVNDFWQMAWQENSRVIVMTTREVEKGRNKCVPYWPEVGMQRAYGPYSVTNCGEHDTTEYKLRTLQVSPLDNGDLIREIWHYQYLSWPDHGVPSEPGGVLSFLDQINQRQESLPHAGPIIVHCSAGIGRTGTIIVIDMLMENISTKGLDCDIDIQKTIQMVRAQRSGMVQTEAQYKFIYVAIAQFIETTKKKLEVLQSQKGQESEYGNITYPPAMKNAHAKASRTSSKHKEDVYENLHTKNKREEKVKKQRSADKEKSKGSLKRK

[2] = target: T1, Tyrosine-protein phosphatase non-receptor type 9 (Homo sapiens) (UniProt P43378); assay: Inhibition of human recombinant MEG2 expressed in Escherichia coli assessed as inhibition of phosphatase activity by measuring p-nitrophenyl phosphate at 6.7 microg/ml measured after 60 mins
T1 sequence (whole entry): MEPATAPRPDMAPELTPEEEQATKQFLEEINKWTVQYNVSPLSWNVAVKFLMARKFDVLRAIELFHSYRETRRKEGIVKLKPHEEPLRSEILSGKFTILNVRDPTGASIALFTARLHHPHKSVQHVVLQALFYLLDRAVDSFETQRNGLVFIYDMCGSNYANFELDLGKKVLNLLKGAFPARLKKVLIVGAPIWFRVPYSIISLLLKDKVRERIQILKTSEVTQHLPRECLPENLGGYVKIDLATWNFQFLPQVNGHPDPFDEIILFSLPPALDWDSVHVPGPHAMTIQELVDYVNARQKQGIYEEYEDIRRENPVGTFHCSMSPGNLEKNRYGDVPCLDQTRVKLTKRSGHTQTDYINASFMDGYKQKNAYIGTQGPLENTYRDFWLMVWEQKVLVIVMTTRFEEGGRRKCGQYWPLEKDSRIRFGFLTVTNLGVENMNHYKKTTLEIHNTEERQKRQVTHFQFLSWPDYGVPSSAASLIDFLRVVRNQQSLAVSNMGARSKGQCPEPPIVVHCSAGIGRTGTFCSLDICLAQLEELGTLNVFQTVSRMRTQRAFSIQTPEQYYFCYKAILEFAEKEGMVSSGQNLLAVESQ

[3] = target: T2, Tyrosine-protein phosphatase non-receptor type 2 (Homo sapiens) (UniProt P17706); assay: Inhibition of human recombinant TCPTP expressed in Escherichia coli assessed as inhibition of phosphatase activity by measuring p-nitrophenyl phosphate at 6.7 microg/ml measured after 60 mins
T2 sequence (whole entry): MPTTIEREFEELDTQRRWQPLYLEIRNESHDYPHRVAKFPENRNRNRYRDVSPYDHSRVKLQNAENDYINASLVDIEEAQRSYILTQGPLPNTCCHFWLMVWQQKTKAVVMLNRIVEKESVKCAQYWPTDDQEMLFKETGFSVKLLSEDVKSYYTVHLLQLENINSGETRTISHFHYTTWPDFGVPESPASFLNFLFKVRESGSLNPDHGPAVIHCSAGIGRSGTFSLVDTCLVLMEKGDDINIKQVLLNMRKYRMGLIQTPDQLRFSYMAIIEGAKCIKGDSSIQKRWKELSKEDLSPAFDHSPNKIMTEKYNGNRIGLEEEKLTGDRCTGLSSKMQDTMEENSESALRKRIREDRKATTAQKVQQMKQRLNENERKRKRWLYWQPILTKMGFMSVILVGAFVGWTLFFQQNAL

[4] = target: T3, Receptor-type tyrosine-protein phosphatase C (Homo sapiens) (UniProt P08575); assay: Inhibition of human recombinant CD45 expressed in Escherichia coli assessed as inhibition of phosphatase activity by measuring p-nitrophenyl phosphate at 6.7 microg/ml measured after 60 mins
T3 sequence (whole entry): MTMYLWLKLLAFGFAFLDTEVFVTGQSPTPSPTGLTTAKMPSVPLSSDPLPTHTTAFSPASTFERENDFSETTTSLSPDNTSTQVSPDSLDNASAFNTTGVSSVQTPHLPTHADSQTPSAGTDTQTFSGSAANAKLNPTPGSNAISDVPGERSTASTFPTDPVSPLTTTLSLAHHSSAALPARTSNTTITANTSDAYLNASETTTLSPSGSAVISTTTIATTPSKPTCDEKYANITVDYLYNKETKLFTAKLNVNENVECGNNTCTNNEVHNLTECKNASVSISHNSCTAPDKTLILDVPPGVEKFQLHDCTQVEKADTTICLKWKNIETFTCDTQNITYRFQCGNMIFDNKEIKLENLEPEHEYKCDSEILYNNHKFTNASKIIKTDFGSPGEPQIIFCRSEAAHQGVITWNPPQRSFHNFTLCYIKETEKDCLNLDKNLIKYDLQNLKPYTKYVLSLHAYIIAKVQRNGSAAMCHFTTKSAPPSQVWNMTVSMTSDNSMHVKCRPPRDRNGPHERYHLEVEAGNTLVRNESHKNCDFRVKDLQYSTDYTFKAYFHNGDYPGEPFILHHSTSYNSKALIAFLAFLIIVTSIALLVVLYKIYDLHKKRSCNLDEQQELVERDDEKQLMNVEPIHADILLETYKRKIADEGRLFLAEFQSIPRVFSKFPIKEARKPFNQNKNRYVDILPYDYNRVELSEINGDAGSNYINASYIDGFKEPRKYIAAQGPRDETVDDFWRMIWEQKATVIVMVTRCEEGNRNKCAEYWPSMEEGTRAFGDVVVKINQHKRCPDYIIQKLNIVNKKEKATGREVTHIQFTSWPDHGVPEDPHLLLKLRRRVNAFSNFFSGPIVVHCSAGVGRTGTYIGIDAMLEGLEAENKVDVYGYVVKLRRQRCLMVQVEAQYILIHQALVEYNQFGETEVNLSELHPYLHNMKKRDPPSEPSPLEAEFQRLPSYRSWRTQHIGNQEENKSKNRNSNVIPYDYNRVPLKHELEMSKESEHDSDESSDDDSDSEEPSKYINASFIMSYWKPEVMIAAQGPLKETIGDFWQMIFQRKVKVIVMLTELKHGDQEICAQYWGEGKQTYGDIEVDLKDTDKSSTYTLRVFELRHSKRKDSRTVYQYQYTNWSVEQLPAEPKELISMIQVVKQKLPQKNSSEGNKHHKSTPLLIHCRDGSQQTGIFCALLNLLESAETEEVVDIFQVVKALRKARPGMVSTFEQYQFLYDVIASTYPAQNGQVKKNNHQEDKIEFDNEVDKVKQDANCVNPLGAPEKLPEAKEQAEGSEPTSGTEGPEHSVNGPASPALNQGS

Measured: inhibition

COC(=O)[C@]12[C@@H]3[C@H]4OC(=O)[C@]3(C)C[C@H]3C(C)=C5CC(=O)OC(C)(C)[C@@]56O[C@H]6[C@H](O[C@]1(O)[C@H](C)O4)[C@@]32C
< 60%: [1] | [2] | [3] | [4]

COC(=O)[C@]12C(=O)[C@@](C)(O)C(=O)[C@](C)(C[C@H]3C(C)=C4CC(=O)OC(C)(C)C4=CC[C@@]31C)[C@]21CO1
< 60%: [1] | [2] | [3] | [4]

COC(=O)CC1=C(C)[C@H]2C[C@]3(C)C(=O)O[C@@H]4O[C@H](C)[C@]5(O)O[C@@H]([C@H]6O[C@@]16C(C)(C)O)[C@@]2(C)[C@@]51C(=O)O[C@@]413
< 60%: [1] | [2] | [3] | [4]

COC(=O)[C@]12[C@@H]3[C@@H](O)O[C@@H](C)[C@@]14OC(=O)[C@]3(C)C[C@H]1C(C)=C3CC(=O)OC(C)(C)[C@@]35O[C@H]5[C@H](O4)[C@@]12C
< 60%: [1] | [2] | [3] | [4]

CC1=C2CC(=O)OC(C)(C)[C@]23O[C@@H]3[C@@H]2O[C@@]3(O)[C@@H](C)O[C@H]4OC(=O)[C@]5(C)C[C@H]1[C@]2(C)[C@@]31C(=O)O[C@@]415
< 60%: [1] | [2] | [3] | [4]

COC(=O)CC1=C(C)[C@@H]2C[C@@]3(C)C(=O)O[C@H]4O[C@@H](C)[C@@]5(O)O[C@@H]([C@@H]6O[C@]16C(C)(C)O)[C@]2(C)[C@@]5(C(=O)OC)[C@]43O
< 60%: [1] | [2] | [3] | [4]

COC(=O)[C@]12C3=C(C)O[C@@H]4OC(=O)[C@](C)(C[C@H]5C(C)=C6CC(=O)O[C@@]6(C(C)(C)O)[C@@H](C[C@@]51C)O3)[C@@H]42
< 60%: [1] | [2] | [3] | [4]

COC(=O)[C@@]12[C@@]3(C)[C@@H]4C=C5C(=CC(=O)OC5(C)C)[C@@](C)(O)[C@@H]3C[C@@]3(C)C(=O)O[C@@H](O[C@@H](C)[C@@]1(O)O4)[C@@]23O
< 60%: [1] | [2] | [3] | [4]

COC(=O)[C@]12[C@@H]3[C@H]4OC(=O)[C@]3(C)CC3=C(C)C5=C(C[C@H](O[C@]1(O)[C@H](C)O4)[C@@]32C)C(C)(C)OC(=O)C5
< 60%: [1] | [2] | [3] | [4]

COC(=O)[C@]12C(=O)[C@H](C)O[C@@H]3OC(=O)[C@](C)(C[C@H]4C(C)=C5CC(=O)OC(C)(C)C5=CC[C@@]41C)[C@@H]32 [BERKELEYACETAL A]
< 60%: [1] | [2] | [3] | [4]

COC(=O)CC1=C(C)[C@@H]2C[C@@]3(C)C(=O)O[C@H]4O[C@@H](C)[C@@]5(O)O[C@@H]([C@@H]6O[C@]16C(C)(C)O)[C@]2(C)[C@@]5(C(=O)OC)[C@H]43
< 60%: [1] | [2] | [3] | [4]

CC1=C2CC(=O)OC(C)(C)C2=CC[C@@]2(C)[C@H]1C[C@@](C)(C(=O)O)[C@]13COC(=O)[C@@]12C(=O)[C@H](C)O3
< 60%: [1] | [2] | [3] | [4]

COC(=O)[C@]12C3=C(C)O[C@@H]4OC(=O)[C@](C)(C[C@H]5C(C)=C6CC(=O)O[C@@]6(C(C)(C)O)[C@H](O3)[C@H](O)[C@@]51C)[C@@H]42
< 60%: [1] | [2] | [3] | [4]
